Data: patent US5010057A, “Renin-inhibiting peptides having an aminomethyl side chain” (Bayer Aktiengesellschaft, priority 1988, dated 1991)
pIC50: −log10 of the molar value. Starred links: 1 amine or outer side, 2 acyl side, 3 side chain; linkers in the order of their positions; H or OH if unused. Non-standard residues stand in square brackets, D forms with d. Residues, ends and D or L forms follow the SMILES beside them. *: point of attachment. X2 = NCC(C(=O)[*:2])C(O)[C@H](CC1CCCCC1)N[*:1]; X1 = CC(C)C[C@H](N[*:1])C(O)C(CN)C(=O)[*:2]; NHCH2(2-pyridyl) = c1ccc(CN*)nc1; Boc = CC(C)(C)OC(=O)*

Molecular target: T1, endogenous renin from human plasma (Homo sapiens, UniProt P00797)
T1 construct: endogenous renin from human plasma; from tissue; host or cells: pooled human plasma (EDTA)
T1 sequence (P00797 67-406): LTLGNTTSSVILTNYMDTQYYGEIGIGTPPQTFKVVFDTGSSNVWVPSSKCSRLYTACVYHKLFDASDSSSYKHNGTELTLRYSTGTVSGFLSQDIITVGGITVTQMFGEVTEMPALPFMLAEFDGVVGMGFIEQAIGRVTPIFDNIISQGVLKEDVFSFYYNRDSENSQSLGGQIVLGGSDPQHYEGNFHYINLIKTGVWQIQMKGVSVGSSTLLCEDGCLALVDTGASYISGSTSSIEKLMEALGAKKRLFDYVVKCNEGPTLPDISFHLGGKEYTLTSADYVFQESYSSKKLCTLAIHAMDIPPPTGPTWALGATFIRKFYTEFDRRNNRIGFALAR
Experiment: In vitro test: inhibition of plasma renin activity (angiotensin I formation, radioimmunoassay)
Type: biochemical
Conditions: pooled human plasma, 37° C., pH 5.6; for % Inhibition: plasma renin activity, test concentration not given; for pIC50: 50% inhibition of plasma renin activity
Description: The inhibitory strength of the peptides according to the invention against endogenous renin from human plasma is determined in vitro. Pooled human plasma is obtained with the addition of ethylenediamintetraacetic acid (EDTA) as an anticoagulant and stored at -20° C. The plasma renin activities (PRA) are determined as the rate of formation of angiotensin I from endogenous angiotensinogen and renin by incubation at 37° C. The reaction solution contains 150 μl of plasma, 3 μl of 6.6% strength 8-hydroxyquinoline sulphate solution, 3 μl of 10% strength dimercaprol solution and 144 μl of sodium phosphate buffer (0.2 M; 0.1% EDTA; pH 5.6) with or without the substances according to the invention in various concentrations. The angiotensin I formed per unit of time is determined using a radioimmunoassay (Sorin Biomedica, Italy). The percentage inhibition of the plasma renin activity is calculated by comparison of […]. The concentration range in which the substances claimed herein show a 50% inhibition of plasma renin activity is between 10^-4 to 10^-9 M.

Structure (SMILES)	% Inhibition	pIC50
CC[C@H](C)[C@H](NC(=O)C1CN(Cc2ccccc2)OC1[C@H](Cc1ccccc1)NC(=O)[C@H](Cc1c[nH]cn1)NC(=O)[C@H](Cc1ccccc1)NC(=O)OC(C)(C)C)C(=O)OC (some centres unmarked) [Example 31]	31%	–
CC[C@H](C)[C@H](NC(=O)C1CN(Cc2ccccc2)OC1[C@H](CC1CCCCC1)NC(=O)[C@H](Cc1c[nH]cn1)NC(=O)[C@H](Cc1ccccc1)NC(=O)OC(C)(C)C)C(=O)OC (some centres unmarked) [Example 39]	67%	–
CC[C@H](C)[C@H](NC(=O)C(CN)C(O)[C@H](Cc1ccccc1)NC(=O)[C@H](Cc1c[nH]cn1)NC(=O)[C@H](Cc1ccccc1)NC(=O)OC(C)(C)C)C(=O)OC (some centres unmarked) [Example 77]	96%	4.96
CC[C@H](C)[C@H](NC(=O)C(CN)C(O)[C@H](CC1CCCCC1)NC(=O)[C@H](Cc1c[nH]cn1)NC(=O)[C@H](Cc1ccccc1)NC(=O)OC(C)(C)C)C(=O)OC (some centres unmarked) [Example 82]	89%	5.85
CC[C@H](C)[C@H](NC(=O)C(CN)C(O)[C@H](CC1CCCCC1)NC(=O)[C@H](Cc1c[nH]cn1)NC(=O)[C@H](Cc1ccccc1)NC(=O)[C@@H]1CCCN1C(=O)OC(C)(C)C)C(=O)NCc1ccccn1 (some centres unmarked) [Example 85] (Boc-PFH[X2]I-{NHCH2(2-pyridyl)})	100%	6.62
CC(C)CNC(=O)C(CN)C(O)[C@H](CC1CCCCC1)NC(=O)[C@H](Cc1c[nH]cn1)NC(=O)[C@H](Cc1ccccc1)NC(=O)OC(C)(C)C (some centres unmarked) [Example 86]	92%	5.05

The next lines start with the values.

% Inhibition	pIC50	Structure (SMILES)
95%	5.60	CC[C@H](C)[C@H](NC(=O)C(CN)C(O)[C@H](Cc1ccccc1)NC(=O)[C@H](Cc1c[nH]cn1)NC(=O)[C@H](Cc1ccccc1)NC(=O)OC(C)(C)C)C(=O)NCc1ccccn1 (some centres unmarked) [Example 79]
100%	7.04	CC[C@H](C)[C@H](NC(=O)C(CN)C(O)[C@H](CC1CCCCC1)NC(=O)[C@H](Cc1c[nH]cn1)NC(=O)[C@H](Cc1ccccc1)NC(=O)OC(C)(C)C)C(=O)NCc1ccccn1 (some centres unmarked) [Example 84]
100%	5.43	CC[C@H](C)[C@H](NC(=O)C(CN)C(O)[C@H](CC(C)C)NC(=O)[C@H](Cc1c[nH]cn1)NC(=O)[C@H](Cc1ccccc1)NC(=O)OC(C)(C)C)C(=O)OC (some centres unmarked) [Example 94]
100%	6.00	CC[C@H](C)[C@H](NC(=O)C(CN)C(O)[C@H](CC(C)C)NC(=O)[C@H](Cc1c[nH]cn1)NC(=O)[C@H](Cc1ccccc1)NC(=O)OC(C)(C)C)C(=O)NCc1ccccn1 (some centres unmarked) [Example 96]
100%	7.66	CC[C@H](C)[C@H](NC(=O)C(CN)C(O)[C@H](CC(C)C)NC(=O)[C@H](Cc1c[nH]cn1)NC(=O)[C@H](Cc1ccccc1)NC(=O)[C@@H]1CCCN1C(=O)OC(C)(C)C)C(=O)NCc1ccccn1 (some centres unmarked) [Example 97] (Boc-PFH[X1]I-{NHCH2(2-pyridyl)})
